The supplement of paper PMC5908809

Assays:
[1] = tested on: normal NK cells expanded with K562-aAPC; assay: percent inhibition of viability; higher = more inhibition; details: 72 h, IL-2 2.5 ng/mL
Protocol: (§1)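 Drug sensitivity and resistance testing on K562-aAPC-expanded normal NK cells: 5 concentrations (10-fold steps over a 10,000-fold range), 72 h at 37 °C, viability by CellTiter-Glo normalised to DMSO and benzethonium chloride controls; DSS from the fitted curve.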

[2] = tested on: normal NK cells expanded with K562-aAPC; assay: drug sensitivity score (DSS) (DSS units); higher = more sensitive; extreme values may be limits of the assay; details: 72 h; IL-2 2.5 ng/mL
Protocol: as §1

[3] = tested on: NK-YS (IL-2 2.5 ng/mL); assay: percent inhibition of viability; higher = more inhibition; details: 72 h
[4] = tested on: KHYG-1 (IL-2 2.5 ng/mL); assay: as above; details: 72 h
[5] = tested on: normal primary NK cells, pool 3 (3 donors) (IL-2 2.5 ng/mL); assay: as above; details: 72 h
[6] = tested on: KAI3 (IL-2 2.5 ng/mL); assay: as above; details: 72 h
[7] = tested on: NK-92 (IL-2 2.5 ng/mL); assay: as above; details: 72 h
[8] = tested on: normal primary NK cells, pool 1 (3 donors), resting (IL-2 0 ng/mL); assay: as above; details: 72 h
[9] = tested on: normal primary NK cells, pool 1 (3 donors) (IL-2 2.5 ng/mL); assay: as above; details: 72 h
[10] = tested on: NKL (IL-2 2.5 ng/mL); assay: as above; details: 72 h
[11] = tested on: YT (IL-2 2.5 ng/mL); assay: as above; details: 72 h
[12] = tested on: normal primary NK cells, pool 2 (3 donors) (IL-2 2.5 ng/mL); assay: as above; details: 72 h
[13] = tested on: IMC-1 (IL-2 20 ng/mL); assay: as above; details: 72 h
[14] = tested on: DERL-7 (IL-2 2.5 ng/mL); assay: as above; details: 72 h
[15] = tested on: SNK-6 (IL-2 2.5 ng/mL); assay: as above; details: 72 h
[16] = tested on: NK-YS (IL-2 2.5 ng/mL); assay: drug sensitivity score (DSS) (DSS units); higher = more sensitive; extreme values may be limits of the assay; details: 72 h
[17] = tested on: KHYG-1 (IL-2 2.5 ng/mL); assay: as above; details: 72 h
[18] = tested on: normal primary NK cells, pool 3 (3 donors) (IL-2 2.5 ng/mL); assay: as above; details: 72 h
[19] = tested on: KAI3 (IL-2 2.5 ng/mL); assay: as above; details: 72 h
[20] = tested on: NK-92 (IL-2 2.5 ng/mL); assay: as above; details: 72 h
[21] = tested on: normal primary NK cells, pool 1 (3 donors), resting (IL-2 0 ng/mL); assay: as above; details: 72 h
[22] = tested on: normal primary NK cells, pool 1 (3 donors) (IL-2 2.5 ng/mL); assay: as above; details: 72 h
[23] = tested on: NKL (IL-2 2.5 ng/mL); assay: as above; details: 72 h
[24] = tested on: YT (IL-2 2.5 ng/mL); assay: as above; details: 72 h
[25] = tested on: normal primary NK cells, pool 2 (3 donors) (IL-2 2.5 ng/mL); assay: as above; details: 72 h
[26] = tested on: IMC-1 (IL-2 20 ng/mL); assay: as above; details: 72 h
[27] = tested on: DERL-7 (IL-2 2.5 ng/mL); assay: as above; details: 72 h
[28] = tested on: SNK-6 (IL-2 2.5 ng/mL); assay: as above; details: 72 h

Nc1nc(NC2CC2)cc(-c2cccc(Cl)c2Cl)n1 [TH588] (max concentration tested 25000 nM)
percent inhibition of viability [%]
Details | 2.5 nM | 25 nM | 250 nM | 2500 nM | 25000 nM
[1] | -9.36 | -5.78 | -3.43 | 4.8 | 54.4
[3] | 1.83 | -0.35 | 11.3 | 66.7 | 80.4
[4] | -2.9 | -3.16 | 5.7 | 58.7 | 107
[5] | -2.82 | 4 | 7.93 | 2.77 | 13.5
[6] | 0.95 | -6.22 | 2.89 | 42 | 64.7
[7] | -1.92 | -6.94 | 2.79 | 72.5 | 101
[8] | -2.99 | 16.5 | 4.87 | 14.2 | 27.3
[9] | -0.99 | 16 | 3.84 | 5.63 | 25.9
[10] | -9.98 | -13.7 | 2.66 | 55.4 | 98.6
[11] | -5.04 | -2.09 | 4.62 | 56.5 | 101
[12] | -12 | 6.63 | 10.1 | 10.4 | 25.7
[13] | -9.26 | 1.24 | 2.13 | 7.29 | 96.8
[14] | -0.31 | 1.28 | 1.11 | 0.06 | 97.7
[15] | 0.31 | -17.3 | 9.99 | 71.7 | 81.9

Details | drug sensitivity score
[2] | 3.67
[16] | 13.8
[17] | 12.6
[18] | 0.02
[19] | 8.66
[20] | 14.2
[21] | 2.68
[22] | 1.81
[23] | 12.1
[24] | 12.3
[25] | 2.06
[26] | 6.5
[27] | 5.47
[28] | 14.5

NC(=O)Nc1sc(-c2ccc(F)cc2)cc1C(N)=O [TPCA-1] (max concentration tested 25000 nM)
percent inhibition of viability [%]
Details | 2.5 nM | 25 nM | 250 nM | 2500 nM | 25000 nM
[1] | -0.68 | -4.88 | 18.2 | 88.4 | 98.1
[3] | -6.85 | -4.02 | 17 | 58 | 94.8
[4] | -2.05 | -6.88 | 25.8 | 101 | 97.8
[5] | -6.13 | -4.52 | 15.6 | 67.3 | 91.3
[6] | -6.8 | -3.3 | 53.5 | 89.1 | 91.4
[7] | -11.2 | -10.8 | 8.78 | 80.4 | 91.7
[8] | -1.07 | 1.15 | 3.48 | 43.5 | 82.3
[9] | -12.8 | -10.6 | 13.2 | 73.4 | 94.3
[10] | -2.04 | -2.79 | 45.8 | 72.9 | 87.4
[11] | -3.91 | -4.44 | 13.1 | 79.6 | 97.9
[12] | -8.08 | -4.41 | 24.2 | 69.5 | 87.1
[13] | -2.64 | -8.76 | -6.99 | 3.86 | 99.3
[14] | 0.71 | 4.69 | 36.8 | 94 | 100
[15] | -12.6 | -19.3 | 33.2 | 75.8 | 93.2

Details | drug sensitivity score
[2] | 18.4
[16] | 13.2
[17] | 21.9
[18] | 14.5
[19] | 23
[20] | 15.9
[21] | 9.72
[22] | 15.2
[23] | 20
[24] | 16.3
[25] | 15.8
[26] | 6.04
[27] | 21.5
[28] | 18.2

Clc1ccccc1C(c1ccccc1)(c1ccccc1)n1cccn1 [TRAM-34] (max concentration tested 1000 nM)
percent inhibition of viability [%]
Details | 0.1 nM | 1 nM | 10 nM | 100 nM | 1000 nM
[1] | -6.55 | 1.68 | -0.18 | 9.02 | 12.7
[3] | 1.9 | 0.93 | 2.82 | 2.55 | 8.67
[4] | -1.11 | 0.96 | -3.26 | 0.95 | -0.5
[5] | -3.16 | -4.73 | 5.06 | -3.53 | 6.24
[6] | -2.69 | 4.59 | -1.47 | 2.61 | 4.51
[7] | -8.56 | -5.28 | -2.17 | -14.1 | 11.6
[8] | -5.83 | -36.5 | -10.7 | -18.8 | -3.17
[9] | 3.23 | -13.1 | 1.01 | -11 | -5.83
[10] | -1.68 | -6.27 | 6.64 | 4.13 | 5.01
[11] | -3.41 | -5.82 | -7.53 | -11.9 | 12.2
[12] | -11.6 | -1.76 | 12.1 | -4.19 | 0.97
[13] | -7.73 | 1.38 | 0.84 | 6.67 | 8.82
[14] | 2.4 | -1.24 | 1.99 | -0.74 | 3.63
[15] | 5.28 | 12.6 | 2.07 | 24 | 3.1

Details | drug sensitivity score
[2] | 0.49
[16] | 0
[17] | 0
[18] | 0
[19] | 0
[20] | 0
[21] | 0
[22] | 0
[23] | 0
[24] | 0
[25] | 0
[26] | 0
[27] | 0
[28] | 0

CC(=O)Nc1ccc(C(=O)Nc2ccccc2N)cc1 [Tacedinaline] (max concentration tested 1000 nM)
percent inhibition of viability [%]
Details | 0.1 nM | 1 nM | 10 nM | 100 nM | 1000 nM
[1] | -1.06 | -4 | -3.33 | 3.27 | 14
[3] | -0.71 | -3.09 | -0.76 | 2.62 | 20.6
[4] | -0.97 | -4.06 | -3.24 | 4.27 | 16.5
[5] | -4.4 | 14.9 | 12.8 | -1.16 | -0.28
[6] | -0.2 | 1.1 | -0.46 | -0.59 | 35.3
[7] | -18.8 | 2.67 | -7.86 | 1.73 | 27.5
[8] | -5.67 | 17.3 | 11.8 | 17 | 7.91
[9] | -1.61 | 16.8 | 8.47 | 8.43 | 13
[10] | -13.2 | -9.56 | -8.35 | 10.4 | 13.4
[11] | -4.71 | -3.94 | -0.65 | 4.76 | 25.3
[12] | -2.79 | 13 | 9.29 | 6.96 | 7.45
[13] | -3.66 | -4.64 | -1.29 | 1.46 | 17.6
[14] | -0.72 | 2.51 | 4.2 | -1.26 | -25
[15] | 1.48 | -10.9 | -5.83 | 1.17 | 46.3

Details | drug sensitivity score
[2] | 0.42
[16] | 1
[17] | 0.78
[18] | 0
[19] | 1.62
[20] | 1.36
[21] | 5.06
[22] | 0.6
[23] | 0.67
[24] | 1.69
[25] | 0
[26] | 0.58
[27] | 0
[28] | 2.54

C[C@@H]1CN(Cc2ccc(F)cc2)[C@@H](C)CN1C(=O)c1cc2c(C(=O)C(=O)N(C)C)cn(C)c2cc1Cl [Talmapimod] (max concentration tested 10000 nM)
percent inhibition of viability [%]
Details | 1 nM | 10 nM | 100 nM | 1000 nM | 10000 nM
[1] | -9.71 | -4.89 | -9.38 | -4.26 | -10.1
[3] | -5.34 | -2.3 | 1.96 | 6.17 | 14.5
[4] | -8.74 | -9.48 | -3.07 | -9.07 | -3.04
[5] | -3.75 | 4.83 | 4.73 | 0.2 | 1.78
[6] | -4.84 | 8.7 | 21.6 | 21.2 | 32.1
[7] | -13.6 | -14.2 | -7.08 | -0.77 | 6.94
[8] | -0.54 | -6.9 | 17.6 | 15.2 | 37
[9] | -13.6 | -10.8 | -4.95 | -6.75 | 2.92
[10] | -6.18 | -3.36 | 7.54 | 9.7 | 22.9
[11] | -3.64 | -1.4 | 4.73 | 5.29 | 14.3
[12] | -0.88 | -7.3 | -3.09 | 1.69 | 0.02
[13] | -2.4 | -5.13 | -5.16 | -10.4 | 0.72
[14] | -8.76 | 3.34 | -3.64 | 2.18 | -3.8
[15] | -0.46 | -0.9 | -3.03 | -23.7 | -10.1

Details | drug sensitivity score
[2] | 0
[16] | 0.37
[17] | 0
[18] | 0
[19] | 6.42
[20] | 0
[21] | 4.01
[22] | 0
[23] | 1.47
[24] | 0.18
[25] | 0
[26] | 0
[27] | 0
[28] | 0
